Reference: US12281122B1, “PI3K inhibitors” (Cogent Biosciences, Inc., priority 2023, dated 2025)

Tests used:
[1] = test system: T47D (PI3Kα-H1047R) cell line; test: HTRF phospho-AKT(S473) cell assay in T47D cells; type: cell-based, human; conditions: Homo sapiens; T47D (PI3Kα-H1047R) cells, HTRF phospho-AKT(S473), 2 hours compound incubation
Method in brief: (§1)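 T47D (PI3Kα-H1047R; RPMI, 10% FBS, insulin) and SKBR3 (wild-type PI3Kα; McCoy's 5A, 10% FBS) cells treated 2 h at 37 °C with 12-point 1:3 dilutions, top 5 μM and 10 μM respectively, ≤0.5% DMSO. SKBR3 stimulated with 70 ng/ml PDGF-BB for the last 15 min; lysate pAKT(S473) by HTRF, IC50 from curves.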

[2] = test system: SKBR3 (PI3Kα-Wild Type) cell line; test: HTRF phospho-AKT(S473) cell assay in SKBR3 cells; type: cell-based, human; conditions: Homo sapiens, SK-BR-3; SKBR3 (PI3Kα-Wild Type) cells, HTRF phospho-AKT(S473), 2 hours compound incubation, PDGF-BB stimulated
Method in brief: as §1

SMILES	IC50 [1] [nM]	IC50 [2] [nM]
Cc1cc([C@@H](C)Nc2ccc(Cl)nc2C(=O)NS(C)(=O)=O)c2nc(-c3ccc(Nc4ccn(C)n4)nc3)n(C)c(=O)c2c1 [Compound 339, (R)-6-chloro-3-((1-(3,6-dimethyl-2-(6-((1-methyl-1H-pyrazol-3-yl)amino)pyridin-3-yl)-4-oxo-3,4-dihydroquinazolin-8-yl)ethyl)amino)-N-(methylsulfonyl) picolinamide]	< 250	1000 to 5000
Cc1cc([C@@H](C)Nc2ccc(Cl)nc2C(=O)NS(C)(=O)=O)c2nc(N3[C@@H]4CC[C@H]3C[C@@H](c3ccn(C)n3)C4)n(C)c(=O)c2c1 [Compound 340, 6-chloro-3-(((R)-1-(3,6-dimethyl-2-((1R,3R,5S)-3-(1-methyl-1H-pyrazol-3-yl)-8-azabicyclo[3.2.1]octan-8-yl)-4-oxo-3,4-dihydroquinazolin-8-yl)ethyl)amino)-N-(methylsulfonyl) picolinamide]	250 to 500	≥ 5000
Cc1cc([C@@H](C)Nc2ccc(Cl)nc2C(=O)NS(C)(=O)=O)c2nc(N3C[C@@H]4[C@@H](COc5ccnn5C)[C@@H]4C3)n(C)c(=O)c2c1 [Compound 341, 6-chloro-3-(((R)-1-(3,6-dimethyl-2-((1R,5S,6R)-6-(((1-methyl-1H-pyrazol-5-yl)oxy)methyl)-3-azabicyclo[3.1.0]hexan-3-yl)-4-oxo-3,4-dihydroquinazolin-8-yl)ethyl)amino)-N-(methylsulfonyl) picolinamide]	< 250	1000 to 5000
Cc1cc([C@@H](C)Nc2ccc(Cl)nc2C(=O)NS(C)(=O)=O)c2nc(N3[C@@H]4CC[C@H]3C[C@H](c3ccn(C)n3)C4)n(C)c(=O)c2c1 [Compound 342, 6-chloro-3-(((R)-1-(3,6-dimethyl-2-((1R,3S,5S)-3-(1-methyl-1H-pyrazol-3-yl)-8-azabicyclo[3.2.1]octan-8-yl)-4-oxo-3,4-dihydroquinazolin-8-yl)ethyl)amino)-N-(methylsulfonyl) picolinamide]	< 250	1000 to 5000
Cc1cc([C@@H](C)Nc2ccc(Cl)nc2C(=O)NS(C)(=O)=O)c2nc(N3CCC[C@@H](Oc4cccnc4)C3)n(C)c(=O)c2c1 [Compound 343, 6-chloro-3-(((R)-1-(3,6-dimethyl-4-oxo-2-((R)-3-(pyridin-3-yloxy)piperidin-1-yl)-3,4-dihydroquinazolin-8-yl)ethyl)amino)-N-(methylsulfonyl) picolinamide]	250 to 500	≥ 5000
Cc1cc([C@@H](C)Nc2ccc(Cl)nc2C(=O)NS(C)(=O)=O)c2nc(N3CC[C@@H](Oc4cccnc4)C3)n(C)c(=O)c2c1 [Compound 345, 6-chloro-3-(((R)-1-(3,6-dimethyl-4-oxo-2-((R)-3-(pyridin-3-yloxy)pyrrolidin-1-yl)-3,4-dihydroquinazolin-8-yl)ethyl)amino)-N-(methylsulfonyl) picolinamide]	< 250	1000 to 5000
Cc1cc([C@@H](C)Nc2ccc(Cl)nc2C(=O)NS(C)(=O)=O)c2nc(-c3ccc(N(C)C)nc3)n(C)c(=O)c2c1 [Compound 349, (R)-6-chloro-3-((1-(2-(6-(dimethylamino)pyridin-3-yl)-3,6-dimethyl-4-oxo-3,4-dihydroquinazolin-8-yl)ethyl)amino)-N-(methylsulfonyl) picolinamide]	< 250	1000 to 5000
Cc1cc([C@@H](C)Nc2ccc(Cl)nc2C(=O)NS(C)(=O)=O)c2nc(N3Cc4nn(-c5ccccc5C)c(N)c4C3)n(C)c(=O)c2c1 [Compound 350, (R)-3-((1-(2-(3-amino-2-(o-tolyl)-2,6-dihydropyrrolo[3,4-c]pyrazol-5(4H)-yl)-3,6-dimethyl-4-oxo-3,4-dihydroquinazolin-8-yl)ethyl)amino)-6-chloro-N-(methylsulfonyl) picolinamide]	< 250	≥ 5000
Cc1cc([C@@H](C)Nc2ccc(Cl)nc2C(=O)NS(C)(=O)=O)c2nc(N3CC[C@H](Oc4ccnnc4)C3)n(C)c(=O)c2c1 [Compound 353, 6-chloro-3-(((R)-1-(3,6-dimethyl-4-oxo-2-((S)-3-(pyridazin-4-yloxy)pyrrolidin-1-yl)-3,4-dihydroquinazolin-8-yl)ethyl)amino)-N-(methylsulfonyl) picolinamide]	250 to 500	1000 to 5000
Cc1cc([C@@H](C)Nc2ccc(Cl)nc2C(=O)NS(C)(=O)=O)c2nc(N3CC[C@H](Oc4cncnc4)C3)n(C)c(=O)c2c1 [Compound 354, 6-chloro-3-(((R)-1-(3,6-dimethyl-4-oxo-2-((S)-3-(pyrimidin-5-yloxy)pyrrolidin-1-yl)-3,4-dihydroquinazolin-8-yl)ethyl)amino)-N-(methylsulfonyl) picolinamide]	< 250	1000 to 5000
Cc1cc([C@@H](C)Nc2ccc(Cl)nc2C(=O)NS(C)(=O)=O)c2nc(N3CCC4(CCN(c5ccn(C)n5)CC4)C3)n(C)c(=O)c2c1 [Compound 358, (R)-6-chloro-3-((1-(3,6-dimethyl-2-(8-(1-methyl-1H-pyrazol-3-yl)-2,8-diazaspiro[4.5]decan-2-yl)-4-oxo-3,4-dihydroquinazolin-8-yl)ethyl)amino)-N-(methylsulfonyl) picolinamide]	< 250	1000 to 5000
Cc1cc([C@@H](C)Nc2ccc(Cl)nc2C(=O)NS(C)(=O)=O)c2nc(N3CCC4(CCN(c5ccn(C)n5)C4)CC3)n(C)c(=O)c2c1 [Compound 359, (R)-6-chloro-3-((1-(3,6-dimethyl-2-(2-(1-methyl-1H-pyrazol-3-yl)-2,8-diazaspiro[4.5]decan-8-yl)-4-oxo-3,4-dihydroquinazolin-8-yl)ethyl)amino)-N-(methylsulfonyl) picolinamide]	250 to 500	≥ 5000
Cc1cc([C@@H](C)Nc2ccc(Cl)nc2C(=O)NS(C)(=O)=O)c2nc(N3CCC[C@@H](Oc4cncnc4)C3)n(C)c(=O)c2c1 [Compound 360, 6-chloro-3-(((R)-1-(3,6-dimethyl-4-oxo-2-((R)-3-(pyrimidin-5-yloxy)piperidin-1-yl)-3,4-dihydroquinazolin-8-yl)ethyl)amino)-N-(methylsulfonyl) picolinamide]	250 to 500	≥ 5000
Cc1cc([C@@H](C)Nc2ccc(Cl)nc2C(=O)NS(C)(=O)=O)c2nc(N3CCC4(CCN(c5ccn(C)n5)CC4)CC3)n(C)c(=O)c2c1 [Compound 361, (R)-6-chloro-3-((1-(3,6-dimethyl-2-(9-(1-methyl-1H-pyrazol-3-yl)-3,9-diazaspiro[5.5]undecan-3-yl)-4-oxo-3,4-dihydroquinazolin-8-yl)ethyl)amino)-N-(methylsulfonyl) picolinamide]	250 to 500	≥ 5000

Next, values leading:

IC50 [1] [nM]	IC50 [2] [nM]	SMILES
< 250	≥ 5000	Cc1cc([C@@H](C)Nc2ccc(Cl)nc2C(=O)NS(C)(=O)=O)c2nc(N3CCC4(CCc5c(cnn5C)C4)CC3)n(C)c(=O)c2c1 [Compound 344, (R)-6-chloro-3-((1-(3,6-dimethyl-2-(1-methyl-1,4,6,7-tetrahydrospiro[indazole-5,4′-piperidin]-1′-yl)-4-oxo-3,4-dihydroquinazolin-8-yl)ethyl)amino)-N-(methylsulfonyl) picolinamide]
< 250	≥ 5000	Cc1cc([C@@H](C)Nc2ccc(Cl)nc2C(=O)NS(C)(=O)=O)c2nc(N3CCC(c4cccn(C)c4=O)CC3)n(C)c(=O)c2c1 [Compound 348, (R)-6-chloro-3-((1-(3,6-dimethyl-2-(4-(1-methyl-2-oxo-1,2-dihydropyridin-3-yl)piperidin-1-yl)-4-oxo-3,4-dihydroquinazolin-8-yl)ethyl)amino)-N-(methylsulfonyl) picolinamide]
< 250	1000 to 5000	Cc1cc([C@@H](C)Nc2ccc(Cl)nc2C(=O)NS(C)(=O)=O)c2nc(N3CC[C@H](Oc4ccnn4C)C3)n(C)c(=O)c2c1 [Compound 351, 6-chloro-3-(((R)-1-(3,6-dimethyl-2-((S)-3-((1-methyl-1H-pyrazol-5-yl)oxy)pyrrolidin-1-yl)-4-oxo-3,4-dihydroquinazolin-8-yl)ethyl)amino)-N-(methylsulfonyl) picolinamide]
< 250	1000 to 5000	Cc1cc([C@@H](C)Nc2ccc(Cl)nc2C(=O)NS(C)(=O)=O)c2nc(N3CC[C@@H](Oc4ccnn4C)C3)n(C)c(=O)c2c1 [Compound 352, 6-chloro-3-(((R)-1-(3,6-dimethyl-2-((R)-3-((1-methyl-1H-pyrazol-5-yl)oxy)pyrrolidin-1-yl)-4-oxo-3,4-dihydroquinazolin-8-yl)ethyl)amino)-N-(methylsulfonyl) picolinamide]
< 250	1000 to 5000	Cc1cc([C@@H](C)Nc2ccc(Cl)nc2C(=O)NS(C)(=O)=O)c2nc(N3CCC(c4cc(C#N)n(C)n4)CC3)n(C)c(=O)c2c1 [Compound 357, (R)-6-chloro-3-((1-(2-(4-(5-cyano-1-methyl-1H-pyrazol-3-yl)piperidin-1-yl)-3,6-dimethyl-4-oxo-3,4-dihydroquinazolin-8-yl)ethyl)amino)-N-(methylsulfonyl) picolinamide]
< 250	1000 to 5000	Cc1cc([C@@H](C)Nc2ccc(Cl)nc2C(=O)NS(C)(=O)=O)c2nc(N3CC[C@H](Oc4cc[nH]n4)C3)n(C)c(=O)c2c1 [Compound 362, 3-(((R)-1-(2-((S)-3-((1H-pyrazol-3-yl)oxy)pyrrolidin-1-yl)-3,6-dimethyl-4-oxo-3,4-dihydroquinazolin-8-yl)ethyl)amino)-6-chloro-N-(methylsulfonyl) picolinamide]
< 250	1000 to 5000	Cc1cc([C@@H](C)Nc2ccc(Cl)nc2C(=O)NS(C)(=O)=O)c2nc(N3CC[C@@H](Oc4cc[nH]n4)C3)n(C)c(=O)c2c1 [Compound 363, 3-(((R)-1-(2-((R)-3-((1H-pyrazol-3-yl)oxy)pyrrolidin-1-yl)-3,6-dimethyl-4-oxo-3,4-dihydroquinazolin-8-yl)ethyl)amino)-6-chloro-N-(methylsulfonyl) picolinamide]
